Assay: isoelectric point of the zwitterion
Type: physicochemical
Conditions: pH at which it may be crystallised
Protocol: (2R)-(3-amino-2-fluoropropyl)phosphinic acid is a zwitterion, that may be crystallised at the isoelectric point, in this case approximately at a pH of 5.3. As the reaction is performed during acidic conditions, the protonated species of (2R)-(3-amino-2-fluoropropyl)phosphinic acid is formed. After completed reaction, the pH is adjusted to 5-6 by addition of a base in order to isolate (2R)-(3-amino-2-fluoropropyl)phosphinic acid crude as the zwitterion. The solution of (2R)-(3-amino-2-fluoropropyl)phosphinic acid works as a buffer solution and the amount of base added to reach the set pH-interval (5-6) is can be varied in the range of from 1.8-2.8 equivalents.

NC[C@@H](F)C[PH](=O)O [(2R)-(3-amino-2-fluoropropyl)phosphinic acid]
isoelectric point (pH): ~5.3

— patent US20110054216A1, “NOVEL PROCESS FOR MAKING (2R)-(3-AMINO-2-FLUOROPROPYL)PHOSPHINIC ACID FORM A” (priority 2007, published 2011)
